Ends that are not written are not given here.

From patent US20230287061A1, “NEW ANTIMICROBIAL PEPTIDES” (priority 2020, published 2023) come the findings set out here.

The subject of this assay is B. cereus.

What is called MIC is the least concentration at which growth counts as inhibited. A high value points to weaker potency. As for ALLKVLFSWFRKHNSRRKNLPAKN [Seq ID no2], the MIC was 256 µg/mL.
